Results taken from patent US20140128461A1, “USE OF A FOOD COMPOSITION IN THE TREATMENT AND/OR PREVENTION OF NEUROPATHIC PAIN INDUCED BY AN ANTICANCER AGENT” (priority 2010, published 2014).

What was measured:
[1] = test system: chronic neuropathy induced by oxaliplatin in rat; assay: Thermal Place Preference Test 20° C. vs. 30° C., chronic neuropathy model, preventive diet
Experimental: The rats were distributed among plastic cages with 4 rats per cage. The cages were placed in an air-conditioned room at 22° C.±2° C., with controlled hygrometry (50%), a day/night 12-hour lighting cycle, and free access to food and water.
Two types of compositions were used: • a composition containing a quantity of polyamines equivalent to that present in a daily food diet (Putrescine: 54 mg/kg, Cadaverine: 37 mg/kg, Spermidine: 27 mg/kg, Spermine: 7 mg/kg), • a composition with low polyamine content comprising less than 1600 picomoles/g polyamines (Putrescine<0.01 mg/kg, Cadaverine<0.01 mg/kg, Spermidine<0.01 mg/kg, Spermine<0.01 mg/kg).
The different types of diets (diet based on a composition comprising a normal content of polyamines or PCD (Polyamine Containing Diet) and a diet based on a composition with low polyamines content called PDD (Polyamine Deficient Diet)) were given as soon as the rats arrived in the animal housing facility i.e. one week before the start of experiments.
The Thermal Place Preference Test (Bioseb®, Chaville, France) is formed of two adjacent metal plates surrounded by a chamber in opaque Plexiglas. The rat is placed in the chamber and is free to move from one plate to the other. The first plate called the <<reference plate>> is held at ambient temperature (25-30° C.) and the second plate called the <<test plate>> is held at a cold temperature. Using an infrared camera connected to a computer, the time that the animal spends on each plate is measured, together with the number of movements between the two plates. Each session lasts 3 minutes. Habituation of the animals consists of placing the rats on the apparatus for 3 minutes several times a day maintaining the two plates at a temperature of 25° C. […] Three pairs of temperatures were chosen for the experiments in relation to the model examined:

[2] = test system: NR2B subunit of the NMDA receptors; assay: Western blot of NR2B expression and phosphorylation in the dorsal horn of the spinal cord; type: in vivo, rat; conditions: D3 after oxaliplatin 6 mg/kg ip, polyamine-containing diet, vs control animals
Experimental: The dorsal corn of the spinal cord (L4-L6) was isolated on an ice block and immediately frozen in liquid nitrogen. The samples were then stored at −80° C. until analysis.
The tissue samples were subjected to cell lysis at 4° C. performed with 300 μL of stop buffer (50 mM Hepes, 150 mM NaCl, 10 mM EDTA, 10 mM Na2P2O7, 10 mM vanadate, 2 mM Na3VO4, 100 mM NaF, 1% Triton, 0.5 mM PMSF, 100 UI/mL Iniprol and 20 μM Leupeptine, pH 7.5). After sonication (1 to 2 minutes at 4° C.), the sample was centrifuged at 14000 rpm at 4° C. and the supernatant collected. This centrifuging step was repeated once. The supernatant contained the cytoplasmic and membrane proteins assayed by colorimetry (BC Assay UP40840A®, Interchim). […] The proteins were then transferred onto a nitrocellulose membrane (Millipore) for 2 hours in a transfer buffer (25 mM Tris, 190 mM glycine, 20% methanol, pH 8.3). The membranes were hybridised with the corresponding antibodies overnight at 4° C. […] The Western-Blots were scanned with an image analyser ChemiDoc™ XRS System, Bio-rad®) and the density of each band was quantified using computer software (Image Lab™ software, Bio-rad®)). […] The results are expressed as a percentage of the control group (non-treated group receiving a diet containing polyamines, PCD CT).

[3] = test system: chronic neuropathy induced by oxaliplatin in rat; assay: Thermal Place Preference Test 20° C. vs. 30° C., chronic neuropathy model, curative diet (PDD from D15); conditions: rats on PCD diet
Experimental: The Thermal Place Preference Test (Bioseb®, Chaville, France) is formed of two adjacent metal plates surrounded by a chamber in opaque Plexiglas. The rat is placed in the chamber and is free to move from one plate to the other. The first plate called the <<reference plate>> is held at ambient temperature (25-30° C.) and the second plate called the <<test plate>> is held at a cold temperature. Using an infrared camera connected to a computer, the time that the animal spends on each plate is measured, together with the number of movements between the two plates. Each session lasts 3 minutes. Habituation of the animals consists of placing the rats on the apparatus for 3 minutes several times a day maintaining the two plates at a temperature of 25° C.

With `O=C1[O][Pt]2([NH][C@@H]3CCCC[C@H]3[NH]2)[O]C1=O` [oxaliplatin] the “change in time spent on the test plate (20° C.) vs control rats on PCD diet” value (shortened to “change in time spent … on PCD diet”) ([1]; D10, p<0.001) was −42%, the “change in time spent … on PCD diet” value ([1]; D15, p<0.001) was −32% and the “change in time spent … on PCD diet” value ([1]; D22, p<0.001) was −24%. For the same compound, the “change in time spent … on PCD diet” value ([1]; D29, p<0.05) was −20%, the “expression of the NR2B subunit” value [2] was “No variation” and the “phosphorylation of the NR2B subunit on tyrosine sites 1472 and 1336 and serine site 1303” value [2] was “No variation”. The “change in time spent on the test plate (20° C.) vs control rats” value ([3]; D4 (maximal), p<0.01) was −46% and the “change in time spent on the test plate (20° C.) vs control rats” value ([3]; D39, p<0.01) was −15%.
